Values of other authors in patent publication US20050084461A1, “Tooth enamel rejuvenating toothpaste” (priority 2003, published 2005).

Conditions: pH of about 7.0, temperature of about 25° C.

## O.O.O=P([O-])([O-])O.[Ca+2] [dicalcium phosphate dihydrate]
  calcium cations released in aqueous solution: about 40 ppm
